Measurements from US20090191193A1, “Aryl Vinyl Sulfides, Sulfones, Sulfoxides and Sulfonamides, Derivatives Thereof and Therapeutic Uses Thereof” (TEMPLE UNIVERSITY-OF THE COMMONWEALTH SYSTEM OF HIGHER …, priority 2006, published 2009).

Tests used:
DU145 (prostate cancer) = assay: Effect on tumor cell lines, viable cell count by trypan blue exclusion (Latham et al.): DU145; type: cell-based; details: DU145 prostate cancer cells, viable cell count 96 hours after treatment
[1] = system: K562 (chronic myelogenous leukaemia); assay: Effect on tumor cell lines, viable cell count by trypan blue exclusion (Latham et al.): K562; type: cell-based; details: K562 chronic myelogenous leukaemia cells, viable cell count 96 hours after treatment

SMILES | IC50 (DU145 (prostate cancer); Homo sapiens, DU-145, 96 h) | IC50 ([1]; Homo sapiens, K562, 96 h) | melting point | IC50 (DU145 (prostate cancer)) | IC50 [1]
COc1ccc(NS(=O)(=O)/C(C#N)=C/c2c(F)c(F)c(F)c(F)c2F)cc1OS(=O)(=O)c1ccc(C)cc1 [Example 194, (E)-2-[(4-methoxy-3-(4-methylphenylsulfonyloxy)phenyl)sulfamoyl]-3-(2,3,4,5,6-pentafluorophenyl)acrylonitrile] | 1 to 10 µM | 1 to 10 µM | 112 to 114 °C | – | –
COc1ccc(/C=C(\C#N)S(=O)(=O)Cc2ccc(Cl)cc2Cl)cc1OC [Example 110] | 50 to 100 µM | 25 to 50 µM | 149 to 153 °C | – | –
COc1cc(OC)c(/C=C(\C#N)S(=O)(=O)Cc2ccc(Br)cc2)c(OC)c1 [Example 20] | 75 µM | 10 µM | 158 to 160 °C | – | –
N#C/C(=C\c1ccc(Br)cc1)S(=O)(=O)Cc1ccc(Cl)cc1Cl [Example 98] | 50 to 100 µM | 25 to 50 µM | 126 to 138 °C | – | –
N#C/C(=C\c1c[nH]c2ccc(Br)cc12)S(=O)(=O)Cc1ccc(F)cc1 [Example 78] | 50 to 100 µM | 50 to 100 µM | 260 to 270 °C | – | –
CCOc1ccc(/C=C(\C#N)S(=O)(=O)Cc2ccc(Cl)cc2)cc1OC [Example 55] | 10 to 25 µM | 10 to 25 µM | 143 to 148 °C | – | –
N#C/C(=C\c1ccc(F)cc1Cl)S(=O)(=O)Cc1ccc(Cl)cc1 [Example 41] | 50 to 100 µM | 50 to 100 µM | 124 to 126 °C | – | –
COc1ccc(NS(=O)(=O)/C(C#N)=C/c2ccc(Br)cc2)cc1 [Example 190] | 50 µM | 50 µM | 106 to 107 °C | – | –
COc1ccc(CS(=O)(=O)/C(C#N)=C/c2c(F)c(F)c(F)c(F)c2F)cc1 [Example 11] | 25 µM | 1 µM | 110 to 112 °C | – | –
COc1cc(/C=C(\C#N)S(=O)(=O)Cc2ccc(Cl)cc2Cl)cc(OC)c1OC [Example 105] | 25 to 50 µM | 10 to 25 µM | 147 to 152 °C | – | –
COc1ccc(/C=C(\C#N)S(=O)(=O)Cc2ccc(Cl)cc2Cl)c(F)c1 [Example 65] | 50 to 100 µM | 50 to 100 µM | 140 to 155 °C | – | –
Cc1cc(C)cc(/C=C(\C#N)S(=O)(=O)Cc2ccc(Br)cc2)c1 [Example 101] | > 100 µM | 50 to 100 µM | 169 to 172 °C | – | –
N#C/C(=C\c1c[nH]c2ccc(Cl)cc12)S(=O)(=O)Cc1ccc(Cl)cc1Cl [Example 91] | – | – | 150 to 161 °C | 10 to 25 µM | 10 to 25 µM
N#C/C(=C\c1ccc(Cl)cc1)S(=O)(=O)Cc1ccc(Cl)cc1 [Example 61] | 50 to 100 µM | 25 to 50 µM | 145 to 168 °C | – | –
N#C/C(=C\c1cc(F)cc(F)c1)S(=O)(=O)Cc1ccccc1 [Example 143] | > 100 µM | 25 to 50 µM | 148 to 150 °C | – | –
N#C/C(=C\c1ccccc1)S(=O)(=O)Cc1ccc(Cl)cc1Cl [Example 112] | 50 to 100 µM | 50 to 100 µM | 219 to 223 °C | – | –
N#C/C(=C\c1c[nH]c2ccc(Br)cc12)S(=O)(=O)Cc1ccc(Cl)cc1 [Example 72] | > 100 µM | > 100 µM | 240 to 250 °C | – | –
CC(=O)Oc1ccc(/C=C(\C#N)S(=O)(=O)Cc2ccc(F)cc2)cc1 [Example 84] | 1 to 10 µM | 1 to 10 µM | 116 to 125 °C | – | –
N#C/C(=C\c1ccc(Br)cc1)S(=O)(=O)Cc1ccc(F)cc1 [Example 82] | > 100 µM | > 100 µM | 155 to 168 °C | – | –
Cc1ccc(/C=C(\C#N)S(=O)(=O)Cc2ccc(Cl)cc2Cl)s1 [Example 63] | > 100 µM | > 100 µM | 118 to 124 °C | – | –
N#C/C(=C\c1ccc(Cl)c(Cl)c1)S(=O)(=O)Cc1ccc(Cl)cc1 [Example 52] | 25 to 50 µM | 10 to 25 µM | 145 to 155 °C | – | –
N#C/C(=C\c1ccccc1OCc1ccccc1)S(=O)(=O)Cc1ccc(Cl)cc1 [Example 70] | > 100 µM | > 100 µM | 129 to 137 °C | – | –
N#C/C(=C\c1c[nH]c2ccccc12)S(=O)(=O)Cc1ccc(Cl)cc1 [Example 68] | 25 to 50 µM | 10 to 25 µM | 200 to 205 °C | – | –
COc1ccc(/C=C(\C#N)S(=O)(=O)Cc2ccc(Cl)cc2)c(OC)c1OC [Example 46] | > 100 µM | > 100 µM | 120 to 128 °C | – | –
COc1cccc(OC)c1/C=C(\C#N)S(=O)(=O)Cc1ccc(Br)cc1 [Example 18] | 25 µM | 10 µM | 156 to 158 °C | – | –
COc1ccc(/C=C(\C#N)S(=O)(=O)Cc2ccc(Cl)cc2Cl)c(O)c1 [Example 113] | > 100 µM | > 100 µM | 242 to 247 °C | – | –
N#C/C(=C\c1ccccc1Cl)S(=O)(=O)Cc1ccc(Br)cc1 [Example 144] | > 100 µM | 25 to 50 µM | 143 to 147 °C | – | –
N#C/C(=C\c1ccoc1)S(=O)(=O)Cc1ccc(Cl)cc1 [Example 122] | > 100 µM | > 100 µM | 150 to 154 °C | – | –
COc1cc(OC)c(OC)cc1/C=C(\C#N)S(=O)(=O)Cc1ccc(Cl)cc1Cl [Example 107] | 50 to 100 µM | > 100 µM | 164 to 170 °C | – | –

Results, then the molecule that gave them:

IC50 (DU145 (prostate cancer); Homo sapiens, DU-145, 96 h) | IC50 ([1]; Homo sapiens, K562, 96 h) | melting point | IC50 (DU145 (prostate cancer)) | IC50 [1] | SMILES
1 to 10 µM | < 1 µM | 174 to 176 °C | – | – | N#C/C(=C\c1c(F)c(F)c(F)c(F)c1F)S(=O)(=O)Nc1ccc(Br)cc1 [Example 221]
50 to 100 µM | 25 to 50 µM | 84 to 86 °C | – | – | COc1ccc(NS(=O)(=O)/C(C#N)=C/c2ccc(Cl)c(Cl)c2)cc1 [Example 288]
> 100 µM | 50 to 100 µM | 166 to 169 °C | – | – | COc1ccc(NS(=O)(=O)/C(C#N)=C/c2ccc(N(C)C)cc2)cc1 [Example 280]
50 to 100 µM | 50 to 100 µM | 118 to 120 °C | – | – | N#C/C(=C\c1ccc(F)c(Cl)c1)S(=O)(=O)Nc1ccc(F)cc1 [Example 245]
> 100 µM | 50 to 100 µM | 146 to 148 °C | – | – | CCOc1cc(/C=C(\C#N)S(=O)(=O)Nc2ccc(C)cc2C)ccc1O [Example 275]
25 to 50 µM | 25 to 50 µM | 165 to 166 °C | – | – | N#C/C(=C\c1ccc(F)cc1F)S(=O)(=O)Nc1ccc(Br)cc1 [Example 226]
> 100 µM | 50 to 100 µM | 142 to 144 °C | – | – | COc1ccc(/C=C(\C#N)S(=O)(=O)Nc2ccc(F)cc2)c(F)c1 [Example 241]
25 to 50 µM | 10 to 25 µM | 177 to 179 °C | – | – | Cc1ccc(NS(=O)(=O)/C(C#N)=C/c2ccccc2OCc2ccccc2)c(C)c1 [Example 252]
50 to 100 µM | 25 to 50 µM | 95 to 96 °C | – | – | COc1ccc(NS(=O)(=O)/C(C#N)=C/c2ccc(Cl)cc2)cc1 [Example 290]
> 100 µM | > 100 µM | 127 to 129 °C | – | – | COc1ccc(/C=C(\C#N)S(=O)(=O)Nc2ccc(C)cc2C)cc1 [Example 270]
25 to 50 µM | 10 to 25 µM | 127 to 129 °C | – | – | N#C/C(=C\c1ccccc1OCc1ccccc1)S(=O)(=O)Nc1ccc(F)cc1 [Example 230]
50 to 100 µM | 25 to 50 µM | 208 to 210 °C | – | – | N#C/C(=C\c1c[nH]c2ccccc12)S(=O)(=O)Nc1ccc(Br)cc1 [Example 214]
25 to 50 µM | 25 to 50 µM | 128 to 130 °C | – | – | N#C/C(=C\c1ccccc1OCc1ccccc1)S(=O)(=O)Nc1ccc(Br)cc1 [Example 213]
50 to 100 µM | 50 to 100 µM | 129 to 134 °C | – | – | N#C/C(=C\c1ccc(Br)cc1)S(=O)(=O)Nc1ccccc1Oc1ccccc1 [Example 196]
> 100 µM | 50 to 100 µM | 116 to 118 °C | – | – | COc1ccccc1/C=C(\C#N)S(=O)(=O)Nc1ccccc1Oc1ccccc1 [Example 199]
> 100 µM | > 100 µM | 141 to 142 °C | – | – | Cc1ccc(/C=C(\C#N)S(=O)(=O)Nc2ccc(F)cc2)cc1C [Example 244]
> 100 µM | > 100 µM | 111 to 113 °C | – | – | CCOc1ccc(/C=C(\C#N)S(=O)(=O)Nc2ccc(OC)cc2)cc1OC [Example 287]
> 100 µM | 50 to 100 µM | 136 to 139 °C | – | – | COc1ccccc1/C=C(\C#N)S(=O)(=O)Nc1ccc(C)cc1C [Example 266, (E)-2-[(2,4-dimethylphenyl)sulfamoyl]-3-(2-methoxyphenyl)acrylonitrile]
> 100 µM | 50 to 100 µM | 146 to 148 °C | – | – | COc1ccc(/C=C(\C#N)S(=O)(=O)Nc2ccc(Br)cc2)c(OC)c1OC [Example 218]
50 to 100 µM | 25 to 50 µM | 169 to 171 °C | – | – | COc1cc(OC)c(/C=C(\C#N)S(=O)(=O)Nc2ccc(F)cc2)c(OC)c1 [Example 232]
50 to 100 µM | 50 to 100 µM | 136 to 138 °C | – | – | N#C/C(=C\c1ccc(Cl)cc1)S(=O)(=O)Nc1ccccc1Oc1ccccc1 [Example 207]
50 to 100 µM | 10 to 25 µM | 156 to 158 °C | – | – | COc1ccc(NS(=O)(=O)/C(C#N)=C/c2cc(OC)ccc2OC)cc1 [Example 202]
50 to 100 µM | 50 to 100 µM | 141 to 143 °C | – | – | Cc1ccc(/C=C(\C#N)S(=O)(=O)Nc2ccccc2Oc2ccccc2)s1 [Example 198]
> 100 µM | 50 to 100 µM | 167 to 169 °C | – | – | N#C/C(=C\c1c[nH]c2ccc(Br)cc12)S(=O)(=O)Nc1ccc(F)cc1 [Example 250]
